Source: US20100204202A1, “DRUG FOR ALLEVIATING MOTOR COMPLICATIONS OR PSYCHIATRIC SYMPTOMS OF PARKINSON'S DISEASE” (Asubio Pharma Co., Ltd., priority 2007, published 2010)
Like-named read-outs stand apart in the source and are kept apart here. Blank lines part the entries; values can stand above or below the molecule they belong to.

Key:
[1] = target: T1, rat serotonin 1A receptors (Rattus norvegicus, UniProt P19327); experiment: Adenylate cyclase inhibition test via rat serotonin 1A receptors (full agonist-partial agonist judgment test), rat hippocampus membranes; format: biochemical; conditions: for inhibition: read-out: maximum inhibitory reaction of adenylate cyclase activity
T1 construct: Each rat was decapitated and the hippocampus was quickly removed; from tissue; host or cells: hippocampus of male Wistar rats
T1 sequence (P19327 1-422): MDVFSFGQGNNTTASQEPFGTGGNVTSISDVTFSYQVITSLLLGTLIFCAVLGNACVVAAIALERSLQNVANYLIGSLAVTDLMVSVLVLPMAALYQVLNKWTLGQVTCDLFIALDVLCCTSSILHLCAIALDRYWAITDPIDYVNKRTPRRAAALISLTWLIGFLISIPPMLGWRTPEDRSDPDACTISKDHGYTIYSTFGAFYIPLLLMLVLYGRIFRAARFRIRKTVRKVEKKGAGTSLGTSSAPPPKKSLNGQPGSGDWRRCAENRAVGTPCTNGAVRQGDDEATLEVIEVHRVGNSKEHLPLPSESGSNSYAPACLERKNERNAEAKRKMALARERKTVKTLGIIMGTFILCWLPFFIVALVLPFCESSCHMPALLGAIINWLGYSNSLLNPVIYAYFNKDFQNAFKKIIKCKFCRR
Method: For the test, Wistar male rats supplied by Shimizu Laboratory Supplies were used (9 to 15 weeks old). Each rat was decapitated and the hippocampus was quickly removed. It was homogenized in 10 volumes of buffer (i.e., 25 mM Tris-HCl, 1 mM EGTA, 5 mM EDTA, 5 mM DTT, 300 mM sucrose, 100 KIU/ml aprotinin, pH 7.4). This was then centrifuged at 500×g, 4° C. for 5 minutes, the supernatant was further centrifuged at 39,000×g, 4° C. for 10 minutes, and the residue was used as the rat hippocampus membrane specimen. The rat hippocampus membrane specimen was diluted by a buffer to 20 to 90 μg/mL of protein, then 50 μL of this cell membrane suspension was added to a 200 μL assay buffer containing each test sample (25 mM Tris-HCl, 100 mM NaCl, 2 mM MgCl2. 0.25 mM ATP, 5 mM phosphocreatine, 10 μg/mL creatine phosphokinase, 0.2 mM IBMX, 10 μM GTP, 10 μM forskolin, pH 7.4) and allowed to react at 30° C. for 5 minutes. 0.2N HCl was added in 250 μL to stop the reaction, then the cAMP produced was assayed by the radioimmunoassay method. […] Note that the adenylate cyclase activity was measured using as an indicator the amount of cAMP produced by the same enzyme. The rate of inhibition by the serotonin 1A receptor agonist was found using the amount of production due to forskolin (10 μM) stimulus as 100%.

[2] = tested on: Parkinson's disease model rats; experiment: Hyperkinesia of the forelimbs and shortening of rotational behavior duration induced by repeated doses of levodopa; format: in vivo, rat
From the text: In rats with unilateral nigrostriatal dopamine nerve destruction generally used as Parkinson's disease animal models, it became clear that by administering levodopa by repeated dosage for about 5 weeks, behavior resembling the symptoms of advanced stage Parkinson's disease appeared. That is, in Parkinson's disease model rats prepared in the same way as in Example 4, along with repeated doses of levodopa, abnormal behavior such as involuntary extending of the forelimb or opening or closing of the hand, up-and-down movement of the wrist, choreiform tremor in the forelimb on the opposite side of microinjection of 6-hydroxydopamine was observed (FIG. 3). This abnormal behavior is reported by Steece-Collier et al. (Steece-Collier K. et al., “Embryonic mesencephalic grafts increase levodopa-induced forelimb hyperkinesia in parkinsonian rats”, Movement Disorders, 2003, 18, p. 1442-1454) as hyperkinesia of the forelimbs.
This appears dependent on the period of repeated doses of levodopa and reportedly is similar to clinical dyskinesia. […] Bibbiani et al. (Bibbiani F. et al., “Serotonin 5-HT1A agonist improves motor complications in rodent and primate parkinsonian models”, Neurology, 2001, 57, p. 1829-1834) report that in Parkinson's disease model rats, along with repeated doses of levodopa, a shortening of the rotational behavior duration is observed and that this phenomenon resembles the wearing off phenomenon in clinical studies.
That is, they treated each group by repeated doses of levodopa and repeated dosage of the tested substance for about 2 weeks (Monday to Friday) and observed the hyperkinesia of the forelimbs and rotational behavior after levodopa administration. Note that the SUN N4057 was subcutaneously administered right before levodopa administration, the sarizotan was orally administered about 20 minutes before levodopa dosage in accordance with above-mentioned known reports (Bibbiani F. et al., Neurology, 2001, 57, p. 1829-1834), and the Example Compound 4 of Japanese Patent Publication No. 2005-298402A was subcutaneously administered about 30 minutes before levodopa dosage in accordance with the above-mentioned Japanese Patent Publication No. 2005-298402A. Further, for the solvent, for SUN N4057 and Example Compound 4 of Japanese Patent Publication No. 2005-298402A, physiological saline was used.
In the same way as Example 4, Parkinson's disease model rats were prepared and the rats treated by repeated doses of levodopa (twice a day, Monday to Friday) for 5 weeks and measured for hyperkinesia of the forelimbs and rotational behavior. Further, based on the results of the hyperkinesia of the forelimbs and rotational behavior duration, the rats were assigned to the groups so as to prevent any significant difference between them, then the effects of the tested substances on these behaviors resembling symptoms of advanced stage Parkinson's disease patients were compared and studied. […] Note that compound Ib (0.3, 1 mg/kg) and compound Ic (0.3, 1 mg/kg) were both intraperitoneally administered right before levodopa administration. For the solvent, physiological saline was used.

rats [3] = experiment: Amount of locomotor activity; format: in vivo, rat; conditions: 10 mg/kg i.p.; minutes 0-5
From the text: For the test, Crl: CD(SD) male rats supplied by Charles River Japan were used (6 weeks old at start of test). For the forced swimming test, the method of the improved type reported by Lucki et al. (Lucki I., “The forced swimming test as a model for core and component behavioral effects of antidepressant drugs”, Behavioural Pharmacology, 1997, 8, p. 523-532; Cryan J. F. et al., “Assessing antidepressant activity in rodents: recent developments and future needs”, TRENDS in Pharmacological Sciences, 2002, 23, p. 238-245) was used. On day 1, each rat was placed in a cylinder filled with water (height 45 cm×diameter 30 cm, water depth 30 cm, water temperature 23° C., water depth set to depth by which back legs and tail of rat will not touch the bottom). The rat was taken out after 15 minutes. At this time, the immobility period (seconds) of minutes 10-15 (5 minutes) was recorded. Based on the results, the rats were assigned to five groups so that there would be no difference among the groups. On day 2, each rat was placed in a cylinder filled with water the same as day 1 and the immobility period (seconds), swimming behavior period (seconds), and climbing behavior period (seconds) of minutes 0-5 (5 minutes) were measured. […]

rats [4] = experiment: Forced swimming method (anti-depressive action); format: in vivo, rat; conditions: 10 mg/kg i.p.
From the text: For the test, Crl: CD(SD) male rats supplied by Charles River Japan were used (6 weeks old at start of test). For the forced swimming test, the method of the improved type reported by Lucki et al. (Lucki I., “The forced swimming test as a model for core and component behavioral effects of antidepressant drugs”, Behavioural Pharmacology, 1997, 8, p. 523-532; Cryan J. F. et al., “Assessing antidepressant activity in rodents: recent developments and future needs”, TRENDS in Pharmacological Sciences, 2002, 23, p. 238-245) was used. On day 1, each rat was placed in a cylinder filled with water (height 45 cm×diameter 30 cm, water depth 30 cm, water temperature 23° C., water depth set to depth by which back legs and tail of rat will not touch the bottom). The rat was taken out after 15 minutes. At this time, the immobility period (seconds) of minutes 10-15 (5 minutes) was recorded. Based on the results, the rats were assigned to five groups so that there would be no difference among the groups. On day 2, each rat was placed in a cylinder filled with water the same as day 1 and the immobility period (seconds), swimming behavior period (seconds), and climbing behavior period (seconds) of minutes 0-5 (5 minutes) were measured. Note that the immobility period was defined as the minimum extent of movement for the rat to hold its head above the water, the swimming behavior as the swimming behavior circling around the inside of the cylinder in the horizontal direction, and the climbing behavior as the climbing behavior moving the forelimbs in the vertical direction along the cylinder walls to try to climb them. The tested substance was intraperitoneally administered 15 minutes after the end of swimming on day 1, and 4 hours and 30 minutes before swimming on day 2. Further, for the amount of locomotor activity, a measuring system (shape 48.8×48.8×30 cm, vertical 8 fractions, horizontal 8 fractions, for total of 64 fractions, Biomedica) set in a blacked out soundproof box was used to record the amount of locomotor activity of the rats at minutes 0-15 (15 minutes). Note that the dosages and timings of administration of the tested substances were set in the same way as the forced swimming test and the substance were intraperitoneally administered 24 hours, 4 hours, and 30 minutes before measurement of the amount of locomotor activity.

Compound: CCCN(CCC)[C@@H]1CCc2cccc(O)c2C1 [8-OH-DPAT, (R)-(+)-8-hydroxy-2-(di-n-propylamino)tetraline]
inhibition [1]: 32%

Compound: Cl.O=C1c2ccccc2OC=C(Cl)N1CCCCN1CC=C(c2ncccn2)CC1 [compound Ib, 3-chloro-4,5-dihydro-4-{4-[4-(2-pyrimidinyl)-1,2,3,6-tetrahydropyridin-1-yl]butyl}-1,4-benzoxazepin-5-one hydrochloride]
rotational behavior duration ([2]; 0.3, 1 mg/kg i.p. repeated 2 weeks): tended to be prolonged
hyperkinesia of the forelimbs ([2]; 0.3, 1 mg/kg i.p. repeated 2 weeks, 30 minutes and 1 hour after levodopa dosage): significantly inhibited

Compound: Cc1ccnc(C2=CCN(CCCCN3C(=O)c4ccccc4OC=C3Cl)CC2)n1.O=C(O)/C=C/C(=O)O [compound Ic, 3-chloro-4,5-dihydro-4-(4-{4-[(4-methyl)-2-pyrimidinyl]-1,2,3,6-tetrahydropyridin-1-yl}butyl)-1,4-benzoxazepin-5-one fumarate]
hyperkinesia of the forelimbs ([2]; 0.3 mg/kg i.p. repeated 2 weeks, 30 minutes after levodopa dosage): significantly inhibited
rotational behavior duration ([2]; 1.0 mg/kg i.p. repeated 2 weeks): significantly prolonged
hyperkinesia of the forelimbs ([2]; 1.0 mg/kg i.p. repeated 2 weeks, 30 minutes and 1 hour after levodopa dosage): significantly inhibited

Compound: CNCCCN1c2ccccc2CCc2ccccc21 [desipramine]
amount of locomotor activity (rats [3]): decline
climbing behavior period (rats [4]): significant increase
immobility period (rats [4]; minutes 0-5 on day 2): significant shortening of the immobility period

IC50 ([1]; forskolin (10 μM) stimulated, rat hippocampus membranes, read-out: IC50 of adenylate cyclase inhibition (for the maximum reaction)): 39 nM
inhibition ([1]; forskolin (10 μM) stimulus = 100%, rat hippocampus membranes): 19%
Compound: O=C1c2ccccc2S(=O)(=O)N1CCCCN1CCN(c2ncccn2)CC1 [ipsapirone]
